Results taken from US10183021B2, “sGC stimulators” (Ironwood Pharmaceuticals, Inc., priority 2013, dated 2019).

What was measured:
Sprague-Dawley rats = experiment: Blood pressure change in Sprague-Dawley rats (Example 4); assay type: in vivo, rat; details: conscious male Sprague-Dawley rats, PO, 10 mg/kg
Protocol: Male rats (250-350 g body weight, supplied by Harlan Laboratories) were anesthetized with ketamine/xylazine and a heparinized saline fluid filled catheter implanted into the right femoral artery. The catheter was exteriorized between the scapula, capped, and the animal allowed to recover for at least 7 days post surgery prior to any compound testing. Prior to testing animals were maintained on normal diet, with free access to drinking water, under a 12 hour light-dark cycle.
On the day of experimentation, under inhaled isoflurane anesthesia, the catheter was uncapped and connected to a tether (Instech Labs) and pressure transducer (Harvard Apparatus). Blood pressure and heart rate were subsequently captured and analyzed with a dedicated data capture system (PowerLab, ADInstruments). Data sampling rates were set at 1 cycle per second. Once connected, each rat was allowed to recover from anesthesia and baseline blood pressure and heart rate levels were established in these conscious, freely-moving animals. Once baseline was established either vehicle (0.5% methylcellulose or 100% PEG400) or test article was administered orally (PO, 10 mg/kg) and the effects on blood pressure and heart rate monitored for up to 24 hours.
Data are reported as hourly averages and changes in blood pressure are calculated from subtracting individual baseline on an hourly basis.

[1] = target: T1, soluble guanylate cyclase (sGC) (Homo sapiens (Human), UniProt Q02108+Q02153); experiment: sGC-HEK-cGMP assay, new protocol with DETA-NONOate, LC/MS detection (Example 2C); assay type: cell-based; details: read-out: Absolute EC50 (uM) - binned
[2] = target: T1, soluble guanylate cyclase (sGC); experiment: sGC-HEK-cGMP assay with SNP incubation, LC/MS detection (Example 2A); assay type: cell-based; details: HEK293 cells, 10 μM SNP, LC/MS detection; for Emax: 100% = BAY 41-2272 at 10 μM, read-out: HEK assay Emax - unconstrained (%)
Procedure, shortened: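 HEK293 cells with endogenous sGC were pretreated 15 min at 37 °C with 0.5 mM IBMX, then exposed 10 min at 37 °C to compound (added from 0.0001–30 μM solutions) plus SNP (from 10 μM solution). After 0.1 M HCl lysis, cGMP was quantified by LC/MS against a standard curve.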

[3] = top of curve not fitted to 100%, read-out: HEK assay EC50 - unconstrained
[4] = top of curve fitted to 100%, read-out: HEK assay EC50 - constrained

T1 sequence (Q02153 whole entry): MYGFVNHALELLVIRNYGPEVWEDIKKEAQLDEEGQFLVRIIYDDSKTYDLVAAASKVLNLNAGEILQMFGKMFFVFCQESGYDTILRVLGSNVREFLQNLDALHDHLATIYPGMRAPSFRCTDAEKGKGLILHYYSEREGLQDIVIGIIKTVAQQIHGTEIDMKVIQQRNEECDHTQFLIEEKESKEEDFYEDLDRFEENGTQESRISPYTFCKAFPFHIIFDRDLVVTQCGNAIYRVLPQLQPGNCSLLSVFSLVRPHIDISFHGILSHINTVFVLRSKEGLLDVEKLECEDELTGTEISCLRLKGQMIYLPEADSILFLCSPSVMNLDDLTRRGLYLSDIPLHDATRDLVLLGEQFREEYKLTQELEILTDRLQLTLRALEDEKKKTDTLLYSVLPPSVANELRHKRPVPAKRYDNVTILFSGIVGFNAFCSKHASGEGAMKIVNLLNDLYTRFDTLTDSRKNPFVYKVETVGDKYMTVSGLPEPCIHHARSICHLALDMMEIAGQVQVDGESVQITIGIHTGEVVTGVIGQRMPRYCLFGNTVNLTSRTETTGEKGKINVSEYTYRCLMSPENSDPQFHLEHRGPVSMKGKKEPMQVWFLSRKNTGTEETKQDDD
T1 sequence (Q02108 whole entry): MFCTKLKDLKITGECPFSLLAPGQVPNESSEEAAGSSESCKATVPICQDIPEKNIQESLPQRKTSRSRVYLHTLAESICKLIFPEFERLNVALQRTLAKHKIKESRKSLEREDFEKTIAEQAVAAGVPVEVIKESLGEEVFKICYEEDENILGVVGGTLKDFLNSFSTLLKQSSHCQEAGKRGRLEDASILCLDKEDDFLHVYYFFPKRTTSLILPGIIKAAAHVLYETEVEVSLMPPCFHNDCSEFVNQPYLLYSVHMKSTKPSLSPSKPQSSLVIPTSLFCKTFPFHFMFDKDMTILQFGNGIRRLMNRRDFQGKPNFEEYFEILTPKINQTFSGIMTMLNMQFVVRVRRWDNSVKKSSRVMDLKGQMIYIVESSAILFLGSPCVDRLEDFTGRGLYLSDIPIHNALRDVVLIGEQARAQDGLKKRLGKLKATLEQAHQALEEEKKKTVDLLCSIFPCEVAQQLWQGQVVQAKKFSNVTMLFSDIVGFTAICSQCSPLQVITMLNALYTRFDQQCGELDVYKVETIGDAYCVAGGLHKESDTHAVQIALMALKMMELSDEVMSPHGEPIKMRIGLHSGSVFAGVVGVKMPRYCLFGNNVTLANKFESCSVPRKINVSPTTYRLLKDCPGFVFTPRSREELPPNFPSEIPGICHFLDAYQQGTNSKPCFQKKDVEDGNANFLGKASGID

SMILES | Rat Mean Arterial Pressure peak change from baseline at 10 mpk (Sprague-Dawley rats) | EC50 [1] | Emax [2] | EC50 [2, 3] | EC50 [2, 4]
CN(CC1(C(=O)O)CCC1)c1nc(-c2cc(-c3ccon3)n(Cc3ccccc3F)n2)ncc1F [Compound I-342] | C (C = peak change from baseline at 10 mpk < −20) | < 0.1 µM | – | – | –
C[C@@H]1CCCN(c2nc(-c3cc(-c4ccon4)n(Cc4ccccc4F)n3)ncc2F)[C@@H]1C(=O)O [Compound I-330] | C (C = peak change from baseline at 10 mpk < −20) | – | – | – | –
C[C@H]1CCCN(c2nc(-c3cc(-c4ccon4)n(Cc4ccccc4F)n3)ncc2F)[C@H]1C(=O)O [Compound I-329] | B (B = −20 ≤ peak change from baseline at 10 mpk ≤ −10) | – | – | – | –
OC(CNc1nc(-c2cc(-c3ccon3)n(Cc3ccccc3F)n2)ncc1F)C(F)(F)F (stereo not drawn) [Compound I-337] | C (C = peak change from baseline at 10 mpk < −20) | < 0.1 µM | – | – | –
NC(=O)C(O)(CNc1nc(-c2cc(-c3ccon3)n(Cc3ccccc3F)n2)ncc1F)C(F)(F)F (stereo not drawn) [Compound I-405] | C (C = peak change from baseline at 10 mpk < −20) | 0.101 to 1 µM | – | – | –
O=C(O)C1(C(F)(F)F)CCN(c2nc(-c3cc(-c4ccon4)n(Cc4ccccc4F)n3)ncc2F)C1 (stereo not drawn) [Compound I-185] | A (A = −10 < peak change from baseline at 10 mpk < 0) | – | 100 to 120% | 1000 to 5000 nM | –
O=C(O)[C@H]1c2ccccc2CCN1c1nc(-c2cc(-c3ccon3)n(Cc3ccccc3F)n2)ncc1F [Compound I-121] | A (A = −10 < peak change from baseline at 10 mpk < 0) | – | 60 to 80% | 100 to 500 nM | –
C[C@H]1CCCN(c2nc(-c3cc(-c4ccon4)n(Cc4ccccc4F)n3)ncc2F)[C@H]1C(=O)O (racemic) [Compound I-161] | B (B = −20 ≤ peak change from baseline at 10 mpk ≤ −10) | – | – | – | –
CN(c1nc(-c2cc(-c3ccon3)n(Cc3ccccc3F)n2)ncc1F)C(C(=O)O)c1ccccc1 (stereo not drawn) [Compound I-142] | A (A = −10 < peak change from baseline at 10 mpk < 0) | – | 80 to 100% | 1 to 100 nM | –
OC[C@H](O)CNc1nc(-c2cc(-c3ccon3)n(Cc3ccccc3F)n2)ncc1F [Compound I-316] | C (C = peak change from baseline at 10 mpk < −20) | < 0.1 µM | – | – | –
CC1(C(=O)O)CCN(c2nc(-c3cc(-c4ccon4)n(Cc4ccccc4F)n3)ncc2F)C1 (stereo not drawn) [Compound I-143] | B (B = −20 ≤ peak change from baseline at 10 mpk ≤ −10) | – | 80 to 100% | 100 to 500 nM | –
CC(O)(CNc1nc(-c2cc(-c3ccon3)n(Cc3ccccc3F)n2)ncc1F)C(N)=O (stereo not drawn) [Compound I-389] | C (C = peak change from baseline at 10 mpk < −20) | < 0.1 µM | – | – | –
CC1(C(=O)O)CCN(c2nc(-c3cc(-c4ccon4)n(Cc4ccccc4F)n3)ncc2F)CC1 [Compound I-124] | B (B = −20 ≤ peak change from baseline at 10 mpk ≤ −10) | – | 60 to 80% | 1 to 100 nM | –
OC(CNc1nc(-c2cc(-c3ccon3)n(Cc3ccccc3F)n2)ncc1F)(C(F)(F)F)C(F)(F)F [Compound I-324] | C (C = peak change from baseline at 10 mpk < −20) | 0.101 to 1 µM | – | – | –
O=C1CN(c2nc(-c3cc(-c4ccon4)n(Cc4ccccc4F)n3)ncc2F)CCN1 [Compound I-59] | – | 0.101 to 1 µM | – | – | > 10000 nM
CC(C)[C@@H](C(=O)O)N(C)c1nc(-c2cc(-c3ncco3)n(Cc3ccccc3F)n2)ncc1F [Compound I-236] | – | < 0.1 µM | 100 to 120% | 100 to 500 nM | –
CC(C)(C)OC(=O)NC1CCN(c2nc(-c3cc(-c4ccon4)n(Cc4ccccc4F)n3)ncc2F)C1 (stereo not drawn) [Compound I-35] | – | 0.101 to 1 µM | 40 to 60% | 500 to 1000 nM | –
CNS(=O)(=O)CCNc1nc(-c2cc(-c3ccon3)n(Cc3ccccc3F)n2)ncc1F [Compound I-367] | – | < 0.1 µM | 60 to 80% | 1 to 100 nM | –
O=C(Nc1ccnc(-c2cc(-c3ccon3)n(Cc3ccccc3F)n2)n1)C(O)(C(F)(F)F)C(F)(F)F [Compound I-400] | B (B = −20 ≤ peak change from baseline at 10 mpk ≤ −10) | 0.101 to 1 µM | – | – | –
CC1C(=O)NCCN1c1nc(-c2cc(-c3ccon3)n(Cc3ccccc3F)n2)ncc1F (stereo not drawn) [Compound I-54] | – | < 0.1 µM | – | – | 100 to 500 nM
CC1CCCN1c1nc(-c2cc(-c3ccon3)n(Cc3ccccc3F)n2)ncc1F (stereo not drawn) [Compound I-11] | – | 0.101 to 1 µM | – | – | 500 to 1000 nM

SMILES | Rat Mean Arterial Pressure peak change from baseline at 10 mpk (Sprague-Dawley rats) | EC50 [1] | Emax [2] | EC50 [2, 3] | EC50 [2, 4]
OCC(CO)Nc1nc(-c2cc(-c3ccon3)n(Cc3ccccc3F)n2)ncc1F [Compound I-315] | C (C = peak change from baseline at 10 mpk < −20) | < 0.1 µM | – | – | –
O=C(O)[C@H](Cc1ccc(O)cc1)Nc1nc(-c2cc(-c3ccon3)n(Cc3ccccc3F)n2)ncc1F [Compound I-159] | – | > 1 µM | – | – | > 10000 nM
CC(C)[C@H](Nc1nc(-c2cc(-c3ccon3)n(Cc3ccccc3F)n2)ncc1F)C(=O)NS(=O)(=O)C1CC1 [Compound I-258] | – | 0.101 to 1 µM | 100 to 120% | 1000 to 5000 nM | –
O=C(O)C1(Nc2nc(-c3cc(-c4ccon4)n(Cc4ccccc4F)n3)ncc2F)CC1 [Compound I-85] | – | > 1 µM | – | – | > 10000 nM
CC(C)[C@H](C(=O)O)N(C)c1nc(-c2cc(-c3ccon3)n(Cc3ccccc3F)n2)ncc1F [Compound I-219] | – | < 0.1 µM | 20 to 40% | > 10000 nM | –
OC[C@@H](O)CNc1nc(-c2cc(-c3ccon3)n(Cc3ccccc3F)n2)ncc1F [Compound I-313] | C (C = peak change from baseline at 10 mpk < −20) | < 0.1 µM | – | – | –
COC1CCCN(c2nc(-c3cc(-c4ccon4)n(Cc4ccccc4F)n3)ncc2F)C1 (stereo not drawn) [Compound I-19] | – | < 0.1 µM | – | – | 1000 to 5000 nM
C[C@H]1CCCN(c2nc(-c3cc(-c4ccon4)n(Cc4ccccc4F)n3)ncc2F)[C@H]1c1nn[nH]n1 [Compound I-341] | A (A = −10 < peak change from baseline at 10 mpk < 0) | < 0.1 µM | – | – | –
COC(=O)N1CCN(c2nc(-c3cc(-c4ccon4)n(Cc4ccccc4F)n3)ncc2F)C(C(=O)O)C1 (stereo not drawn) [Compound I-135] | – | > 1 µM | – | – | > 10000 nM
CC(C)[C@H](Nc1nc(-c2cc(-c3ccon3)n(Cc3ccccc3F)n2)ncc1F)C(=O)O [Compound I-69, (S)-2-((5-fluoro-2-(1-(2-fluorobenzyl)-5-(isoxazol-3-yl)-1H-pyrazol-3-yl)pyrimidin-4-yl)amino)-3-methylbutanoic acid] | – | 0.101 to 1 µM | 80 to 100% | 500 to 1000 nM | 100 to 500 nM
CS(=O)(=O)C1CCN(c2nc(C3=NC(Cc4ccccc4F)C(c4ccon4)=C3)ncc2F)C1 (stereo not drawn) [Compound I-192] | – | < 0.1 µM | > 120% | 1 to 100 nM | –
CN(CCS(=O)(=O)O)c1nc(-c2cc(-c3ccon3)n(Cc3ccccc3F)n2)ncc1F [Compound I-368] | – | > 1 µM | 20 to 40% | 100 to 500 nM | –
Fc1ccccc1Cn1nc(-c2ncc(F)c(N3CCc4ccccc4C3)n2)cc1-c1ccon1 [Compound I-111] | – | < 0.1 µM | – | – | > 10000 nM
CN(c1nc(-c2cc(-c3ccon3)n(Cc3ccccc3F)n2)ncc1F)C12CC(C(=O)O)(C1)C2 [Compound I-307] | – | 0.101 to 1 µM | 100 to 120% | 1000 to 5000 nM | –
CN(CCS(N)(=O)=O)c1nc(-c2cc(-c3ccon3)n(Cc3ccccc3F)n2)ncc1F [Compound I-374] | – | < 0.1 µM | 100 to 120% | 100 to 500 nM | –
O=C(O)CCCNc1nc(-c2cc(-c3ccon3)n(Cc3ccccc3F)n2)ncc1F [Compound I-214] | – | < 0.1 µM | > 120% | 100 to 500 nM | –
O=C(O)C1(O)CCN(c2nc(-c3cc(-c4ccon4)n(Cc4ccccc4F)n3)ncc2F)CC1 [Compound I-300] | – | 0.101 to 1 µM | 60 to 80% | 500 to 1000 nM | –
O=C(O)[C@@]1(Nc2nc(-c3cc(-c4ccon4)n(Cc4ccccc4F)n3)ncc2F)CC2CC[C@H]1C2 [Compound I-114] | – | > 1 µM | 40 to 60% | 1000 to 5000 nM | –
NS(=O)(=O)C1CCN(c2nc(-c3cc(-c4ccon4)n(Cc4ccccc4F)n3)ncc2F)CC1 [Compound I-366] | – | < 0.1 µM | 40 to 60% | 1 to 100 nM | –
CN(Cc1nn[nH]n1)c1nc(-c2cc(-c3ccon3)n(Cc3ccccc3F)n2)ncc1F [Compound I-191] | – | < 0.1 µM | – | – | > 10000 nM
